Measured values: patent US4851536A, “Cyclohexylquinolines as inhibitors of interleukin 1” (American Home Products Corporation, priority 1988, dated 1989)

Experiments:
[1] = test system: IL 1-induced release of neutral protease from rabbit articular chondrocytes; test: Inhibition of IL 1-induced release of neutral protease from rabbit articular chondrocytes (% inhibition of protease secretion, azocoll degradation); format: cell-based, rabbit (male New Zealand White); conditions: Oryctolagus cuniculus, Chondrocyte, test compound 10 minutes prior to IL 1, 24 hours after IL 1 stimulation
Procedure: The ability of the compounds of the inventions to inhibit interleukin 1 is measured by the ability of the test compounds to inhibit the IL 1-induced release of neutral protease from rabbit articular chondrocytes.
This assay is carried out as follows:
Isolation of rabbit chondrocytes:
Male New Zealand White rabbits are anesthetized with 50 mg/kg of ketamine (i.m.) and killed by an intracardiac injection of 3 mls of Nembutal. The knee joints of both legs are resected and the articular surfaces are exposed. Cartilage slices are obtained using a scalpel and are placed in a tissue culture dish (100 mm diameter) containing 10 mls of Hank's balanced salt solution (HBSS). The chondrocytes within the cartilage slices are then liberated by a series of enzyme digestions. The slices are incubated for 10 minutes at 37° C. in 0.05% hyaluronidase (Sigma H-3884), rinsed with HBSS and incubated with 0.2% trypsin (Sigma T-2395) for 10 minutes at 37° C. The slices are rinsed again and incubated for 10 minutes at 37° C. with 1.2% collagenase (Sigma C-5138). The slices are then rinsed again with HBSS and resuspended in 10 ml of Ham's F-12 medium containing 10% fetal bovine calf serum (FCS) and 0.2% collagenase and incubated overnight at 37° C. in a 5% CO2 incubator. The next day, the medium containing the digested cartilage fragments and liberated chondrocytes is transferred to a 15 ml centrifuge tube and the cells are collected by centrifugation and washed twice and resuspended in Ham's F-12 medium. The cells are then plated into 24-well tissue culture plates (2×10^5 cells/well) and incubated at 37° C. until confluent (usually 4-6 days).
Stimulation of chondrocytes and drug treatment
The confluent chondrocytes are rinsed twice with serum-free Ham's F-12 medium and 1 ml is added to each well. Fifty μl of purified human IL 1 (100 Units/ml; Genzyme Corporation, Boston, MA) is then added to stimulate these cells to secrete neutral protease. To measure drug effects, the cells are treated with test compound 10 minutes prior to additon of IL 1. The standard screening dose is 10 μM. Twenty-four hours after IL 1 stimulation, supernatant fluids are collected and assayed for neutral protease activity.
The neutral protease activity of chondrocyte supernatant fluids is determined by their ability to degrade an insoluble protease substrate, azocoll (Sigma). Supernatants are treated for 10 minutes at room temperature with 350 μM p-aminophenylmurcuric acetate to activate the latent enzyme. Three hundred μl of supernatant is then mixed with 500 μl of a 20 mg/ml suspension of azocoll and incubated at 37° C. for 18-24 hours with gentle rocking. The mixtures are centrifuged and the amount of substrate hydrolyzed is determined by measuring the absorbance of the supernatant at 520 nm.
Drug effects are calculated as the % change in enzyme activity (absorbance)by supernatants from drug-treated chondrocytes relative to enzyme activity of supernatants from vehicle-treated chondrocytes as follows:
% Inhibition of Protease Secretion= [formula]

[2] = test system: IL 1-induced release of neutral protease from rabbit articular chondrocytes; test: as above; format: cell-based, rabbit (male New Zealand White); conditions: Oryctolagus cuniculus, Chondrocyte, test compound 10 minutes prior to IL 1, 24 hours after IL 1 stimulation; remark: listed apart in the source

SMILES | inhibition at 10 µM [1] | inhibition at 0.1 µM [2] | inhibition at 1 µM [2] | inhibition at 5 µM [2]
Clc1ccc2c(Cl)c3c(nc2c1)CCSC3 [Example 1A, 7,10-Dichloro-3,4-dihydro-1H-thiopyrano[4,3-b]quinoline] | 35 ± 11% | – | – | –
Clc1ccc2c(NNc3ccccc3)c3c(nc2c1)CCSC3 [Example 1B, 7-Chloro-3,4-dihydro-10-(2-phenylhydrazino)-1H-thiopyrano[4,3-b]quinoline] | 98 ± 1% | 67% | 94% | 93 ± 5%
CC1CCc2nc3cc(Cl)ccc3c(Cl)c2C1 (stereo not shown) [Example 2A, 6,9-Dichloro-1,2,3,4-tetrahydro-2-methylacridine, quarter hydrate] | 34 ± 26% | – | – | –
CC1CCc2nc3cc(Cl)ccc3c(NNc3ccccc3)c2C1 (stereo not shown) [Example 2B, 6-Chloro-1,2,3,4-tetrahydro-2-methyl-9-(2-phenylhydrazino)acridine] | 85 ± 6% | – | 36% | –
Clc1ccc2c(Cl)c3c(nc2c1)CCC(c1ccccc1)C3 (stereo not shown) [Example 3A, 6,9-Dichloro-1,2,3,4-tetrahydro-2-phenylacridine, hemihydrate] | ≤ 20% | – | – | –
Clc1ccc2c(NNc3ccccc3)c3c(nc2c1)CCC(c1ccccc1)C3 (stereo not shown) [Example 3B, 6-Chloro-1,2,3,4-tetrahydro-2-phenyl-9-(2-phenylhydrazino)acridine] | 81 ± 2% | – | 27% | –
Clc1c2c(nc3ccccc13)CCSC2 [Example 4, 10-Chloro-3,4-dihydro-1H-thiopyrano[4,3-b]quinoline] | 43% | – | 38% | 46%
c1ccc(NNc2c3c(nc4ccccc24)CCSC3)cc1 [Example 5, 3,4-Dihydro-10-(2-phenylhydrazino)-1H-thiopyrano[4,3-b]quinoline, three-quarters hydrate] | 79 ± 14% | – | 37% | 55 ± 22%
O=S1(=O)CCc2nc3ccccc3c(Cl)c2C1 [Example 6, 10-Chloro-3,4-dihydro-1H-thiopyrano[4,3-b]quinoline 2,2-dioxide] | 32% | – | – | 19%
O=S1(=O)CCc2nc3cc(Cl)ccc3c(Cl)c2C1 [Example 7, 7,10-Dichloro-3,4-dihydro-1H-thiopyrano[4,3-b]quinoline 2,2-dioxide] | 25% | – | 10% | 26%
O=S1(=O)CCc2nc3cc(Cl)ccc3c(NNc3ccccc3)c2C1 [Example 8, 7-Chloro-3,4-dihydro-10-(2-phenylhydrazino)-1H-thiopyrano[4,3-b]quinoline 2,2-dioxide] | 16% | – | 3% | 37%
COC(=O)C1CCc2nc3cc(Cl)ccc3c(Cl)c2C1 (stereo not shown) [Example 9, 6,9-Dichloro-1,2,3,4-tetrahydro-2-acridinecarboxylic acid methyl ester] | 58% | – | 30% | 53%
CCOC(=O)C1CCc2nc3cc(Cl)ccc3c(NNc3ccccc3)c2C1 (stereo not shown) [Example 10, 6-Chloro-1,2,3,4-tetrahydro-9-(2-phenylhydrazino)-2-acridinecarboxylic acid ethyl ester] | 96% | 70% | 91% | –
O=C(O)C1CCc2nc3cc(Cl)ccc3c(Cl)c2C1 (stereo not shown) [Example 11, 6,9-Dichloro-1,2,3,4-tetrahydro-2-acridinecarboxylic acid] | 88% | 58% | 50% | –
O=C(O)C1CCc2nc3cc(Cl)ccc3c(NNc3ccccc3)c2C1 (stereo not shown) [Example 12, 6-Chloro-1,2,3,4-tetrahydro-9-(2-phenylhydrazino)-2-acridinecarboxylic acid hemihydrate] | 68% | 57% | 61% | –
